Results reported in article PMC10119282, “Molecular characterization of AIFM2/FSP1 inhibition by iFSP1-like molecules” (Cell Death & Disease, 2023).

Key:
[1] = tested on: Pfa1 Gpx4−/− overexpressing hFSP1 Y296A/F360A; experiment: Cell viability (Alamar blue), hFSP1 Y296A/F360A; type: cell-based, murine
Description: (§1) Cell Lines. 4-hydroxytamoxifen (TAM)-inducible Gpx4^−/− murine immortalized fibroblasts (Pfa1) were reported previously. These cells harbor two loxP-flanked Gpx4 alleles and stably express TAM inducible Cre recombinase allowing the genetic deletion of Gpx4 at will. For all experiments using Gpx4^−/− the well were treated with 4-hydroxitamoxifen (TAM) 1 µM. All cells were cultured with were cultured in DMEM-high glucose (4.5 g glucose/L) with 10% fetal bovine serum (FBS), Glutamax, and 1% penicillin/streptomycin (Gibco, Thermo Fischer) at 37 °C with 5% CO2 and verified to be negative for mycoplasma.
(§2) Cell viability assays. Alamar Blue method: Cells were seeded on 96-well plates (2000 cells per well) and treated with the compounds RSL3, iFSP1 and (liproxstatin-1) after plating. Cell viability was assessed 48 h (unless stated otherwise) after treatment using Alamar Blue as an indicator of viable cells. Alamar blue solution was made by dissolving of 1 g resazurin sodium salt (Thermo Fischer) in 200 mL sterile PBS and sterile filtrated through a 0.22 µm filter. Stock solutions were stored at 4 °C. The working solution was made freshly by adding 200 µL of the stock solution to 25 mL growth media. After 2–4 h incubation time, viability was estimated by measuring the fluorescence using a 540/35 excitation filter and a 590/20 emission on a Spark® microplate reader (Tecan, Zürich, Switzerland).

[2] = Water solubility; type: physicochemical
[3] = tested on: Pfa1 Gpx4−/− overexpressing chimeric FSP1 C6; experiment: Cell viability (Alamar blue), chimeric construct C6; type: cell-based, murine
Description: as §1
as §2, with “Switzerland). […]” for “Switzerland).”

[4] = tested on: Pfa1 Gpx4−/− overexpressing chimeric FSP1 C1; experiment: Cell viability (Alamar blue), chimeric construct C1; type: cell-based, murine; conditions: Mus musculus; chimeric construct C1 (human residues 1 to 59); x axis iFSP1 (μM); read-out: IC50 (dose-response toxicity)
Description: as §1
as §2, with “Switzerland). […]” for “Switzerland).”

[5] = tested on: Pfa1 Gpx4−/− overexpressing hFSP1 F360L; experiment: Cell viability (Alamar blue), hFSP1 F360L; type: cell-based, murine
Description: as §1, §2

[6] = tested on: Pfa1 Gpx4−/− overexpressing chimeric FSP1 C5; experiment: Cell viability (Alamar blue), chimeric construct C5; type: cell-based, murine; conditions: Mus musculus; chimeric construct C5 (human residues 241 to 300); x axis iFSP1 (μM); read-out: IC50 (dose-response toxicity)
Description: as §1
as §2, with “Switzerland). […]” for “Switzerland).”

[7] = Mus musculus, x axis iFSP1 (μM), read-out: IC50 (dose-response toxicity)

In the case of `Cc1ccc(-c2c(C#N)c(N)n3c(nc4ccccc43)c2C#N)cc1` [iFSP1], the “inhibitor activity (ferroptosis induction)” value [1] is reported as “abolishes the inhibitor activity”, the IC50 [1, 7] is reported as 5.62 µM and the water solubility [2] is reported as “poor”. For the same compound, the IC50 ([3]; Mus musculus, chimeric construct C6 (human residues 301 till 373), x axis iFSP1 (μM), read-out: IC50 (dose-response toxicity)) was 1.64 µM, the induction of ferroptosis ([3]; chimera C6) was “underwent ferroptosis upon iFSP1 treatment” and the IC50 [4] was 9.41 µM. For the same compound, the “capacity to induce ferroptosis” value [5] was “completely abolished the capacity of iFSP1 to induce ferroptosis”, the IC50 [5, 7] was 6.18 µM and the IC50 [6] was 6.82 µM.
